The values below come from patent publication US8912216B2, “Hetaryl-[1,8]naphthyridine derivatives” (Merck Patent GmbH, priority 2010, dated 2014).

In one experiment the target is T1, GST-ALK5 (Homo sapiens, UniProt P36897).
T1 sequence (P36897 34-503): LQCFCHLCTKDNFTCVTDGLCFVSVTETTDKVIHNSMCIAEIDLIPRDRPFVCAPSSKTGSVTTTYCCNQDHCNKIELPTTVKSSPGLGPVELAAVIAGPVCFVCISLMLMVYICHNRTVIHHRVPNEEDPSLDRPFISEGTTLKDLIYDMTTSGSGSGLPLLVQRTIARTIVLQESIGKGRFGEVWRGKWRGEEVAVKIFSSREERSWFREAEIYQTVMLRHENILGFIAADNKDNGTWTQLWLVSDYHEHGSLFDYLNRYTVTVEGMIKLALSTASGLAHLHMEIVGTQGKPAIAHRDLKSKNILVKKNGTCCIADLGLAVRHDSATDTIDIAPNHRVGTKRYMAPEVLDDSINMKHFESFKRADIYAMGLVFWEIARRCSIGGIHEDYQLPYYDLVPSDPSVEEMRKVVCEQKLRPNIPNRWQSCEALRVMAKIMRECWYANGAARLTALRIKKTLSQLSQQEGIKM
The experiment in a line: In-vitro (enzyme) kinase assay, 384-well flashplate (Example 36). The class given is biochemical. The conditions noted are these: GST-ALK5, GST-SMAD2 substrate, 3 mM ATP, 30° C., 45 min; read-out: TβR activity (Example 36). In outline:
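Radiometric flashplate assay: 31.2 nM GST-ALK5 phosphorylating 439 nM GST-SMAD2 with 3 mM ATP plus ³³P-ATP, in HEPES/MgCl2/MnCl2/DTT/BSA buffer pH 7.4, 45 min at 30 °C, 5-10 compound concentrations. EDTA stop, filtration and washing, then radioactivity counted; IC50 derived from the curve.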

Experiment [1] has as its system TGF-beta-induced phosphorylation of Smad2 and Smad3 in Mv1-Lu cells. The experiment in a line: Inhibition of Smad2/3 phosphorylation in Mv1Lu cells (Example 35A). The class given is cell-based, mink Mustela vison. The conditions noted are these: Neogale vison, read-out: TβR activity (Example 35A). In outline:
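Serum-starved (16-20 h) Mv1-Lu mink lung epithelial cells were pre-incubated 1.5 h with compound dilutions (0.2% DMSO), then stimulated 1 h with 5 ng/ml TGF-beta 1. Phospho-Smad2 (Ser465/467)/Smad3 (Ser423/425) in lysates was measured by ELISA. IC50 came from dose-response fits between stimulated and unstimulated controls.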

[2] abbreviates: Mv1-Lu cells, TGF-beta 1 5 ng/ml, phospho-Smad2/3 ELISA.

Structures can show the parent of a compound that is named as a salt. Where two headings read alike, the source gives them in different places.

Consider `CCN1CCc2ccc(-c3cncc(-c4cc(-c5cc(Cl)ccc5F)nc5ncccc45)c3)cc2C1` [compound 173, 2-(5-Chloro-2-fluoro-phenyl)-4-[5-(2-ethyl-1,2,3,4-tetrahydro-isoquinolin-7-yl)-pyridin-3-yl]-[1,8]naphthyridine], for which the IC50 (on GST-ALK5; in experiment [1] (setting [2])) was under 100 nM each time.
For the molecule `NCCc1cccc(-c2cncc(-c3cc(-c4cc(Cl)ccc4F)nc4ncccc34)c2)c1` [compound 166, 2-(3-{5-[2-(5-Chloro-2-fluoro-phenyl)-[1,8]naphthyridin-4-yl]-pyridin-3-yl}-phenyl)-ethylamine], the IC50 (at GST-ALK5; in experiment [1] (setting [2])) was under 100 nM each time.
For the molecule `Fc1ccccc1-c1cc(-c2cncc(-c3nccc(N4CCNCC4)n3)c2)c2cccnc2n1` [compound 71, 2-(2-fluoro-phenyl)-4-[5-(4-piperazin-1-yl-pyrimidin-2-yl)-pyridin-3-yl]-[1,8]naphthyridine], the IC50 at GST-ALK5 was under 100 nM; in experiment [1] (setting [2]), 1000 to 10000 nM.
Turning to `Fc1ccc(Cl)cc1-c1cc(-c2cncc(-c3cnn(C4CCNCC4)c3)c2)c2cccnc2n1` [compound 11, 2-(5-chloro-2-fluoro-phenyl)-4-[5-(1-piperidin-4-yl-1H-pyrazol-4-yl)-pyridin-3-yl]-[1,8]naphthyridine dihydrochloride], the IC50 (at GST-ALK5; in experiment [1]) was under 100 nM each time.
For the molecule `Fc1ccc(Cl)cc1-c1cc(-c2cncc(-c3ccc(N4CCNCC4)nc3)c2)c2cccnc2n1` [compound 95, 2-(5-Chloro-2-fluoro-phenyl)-4-(6′-piperazin-1-yl-[3,3′]bipyridinyl-5-yl)-[1,8]naphthyridine], the IC50 on GST-ALK5 is under 100 nM; in experiment [1] (setting [2]) it was 100 to 1000 nM.
For `Fc1ccc(Cl)cc1-c1cc(-c2cncc(-c3ccc4c(c3)CCNC4)c2)c2cccnc2n1` [compound 155, 2-(5-Chloro-2-fluoro-phenyl)-4-[5-(1,2,3,4-tetrahydro-isoquinolin-6-yl)-pyridin-3-yl]-[1,8]naphthyridine], the IC50 (at GST-ALK5; in experiment [1] (setting [2])) was under 100 nM each time.
On to `OCC(O)Cn1cc(-c2cncc(-c3cc(-c4cc(F)ccc4F)nc4ncccc34)c2)cn1` (stereo not shown) [compound 88, 3-(4-{5-[2-(2,5-Difluoro-phenyl)-[1,8]naphthyridin-4-yl]-pyridin-3-yl}-pyrazol-1-yl)-propane-1,2-diol], for which the figures for the IC50 (on GST-ALK5; in experiment [1] (setting [2])) were under 100 nM and 1000 to 10000 nM, respectively.
In the same order, the values of `CN1CCC(n2cc(-c3cncc(-c4cc(-c5cc(Cl)ccc5F)nc5ncccc45)c3)cn2)C1` (stereo not shown) [compound 58, 2-(5-Chloro-2-fluoro-phenyl)-4-{5-[1-(1-methyl-pyrrolidin-3-yl)-1H-pyrazol-4-yl]-pyridin-3-yl}-[1,8]naphthyridine] are under 100 nM and under 100 nM.
Taken in the same sequence, the figures for `CN(C)CCCOc1ccc(-c2cncc(-c3cc(-c4cc(Cl)ccc4F)nc4ncccc34)c2)cc1` [compound 139, [3-(4-{5-[2-(5-Chloro-2-fluoro-phenyl)-[1,8]naphthyridin-4-yl]-pyridin-3-yl}-phenoxy)-propyl]-dimethyl-amine] were under 100 nM and under 100 nM.
In the same order, the values of `CC(=O)Nc1cccc(-c2cncc(-c3cc(-c4cc(Cl)ccc4F)nc4ncccc34)c2)n1` [compound 115, N-{5′-[2-(5-Chloro-2-fluoro-phenyl)-[1,8]naphthyridin-4-yl]-[2,3′]bipyridinyl-6-yl}-acetamide] are under 100 nM and 100 to 1000 nM.
For `CN1CCN(CCCn2cc(-c3cncc(-c4cc(-c5ccccc5F)nc5ncccc45)c3)cn2)CC1` [compound 86, 2-(2-Fluoro-phenyl)-4-(5-{1-[3-(4-methyl-piperazin-1-yl)-propyl]-1H-pyrazol-4-yl}-pyridin-3-yl)-[1,8]naphthyridine], the IC50 is under 100 nM on GST-ALK5 and 100 to 1000 nM in experiment [1] (setting [2]).
